Data on two compounds can be found in the NIST ThermoML archive (doi:10.1021/acs.jced.8b00192).

For data set [1] the following is noted: Crystal; DTA.
The nature of data set [2]: Molar enthalpy of transition or fusion. The following applies: Crystal; DSC.

± gives the expanded uncertainty stated by the source.

In the case of `CC(=O)c1cccc([N+](=O)[O-])c1` [1-(3-nitrophenyl)ethanone], the Normal melting temperature in data set [1] is 76.53 ± 1.1 °C. Moreover, in data set [2], the “Molar enthalpy of transition or fusion” value is 16.1 ± 0.88 kJ/mol.

Take `CC(=O)c1ccc([N+](=O)[O-])cc1` [1-(4-nitrophenyl)ethanone]: the Normal melting temperature in data set [1] stood at 81.00 ± 1.1 °C. The “Molar enthalpy of transition or fusion” value in data set [2] is 23.9 ± 0.94 kJ/mol.
